Earlier results on one compound are cited in US8809326B2, “Isoquinolinone Rho kinase inhibitors” (Aerie Pharmaceuticals, Inc., priority 2006, dated 2014).

For data set [1] the following is noted: rat stroke model.
The conditions of data set [2]: porcine, IL-1 beta-induced, long term treatment.

As for `O=S(=O)(c1cccc2cnccc12)N1CCCNCC1` [fasudil], in data set [1], the infarct size entry is “reduce” and the neurologic deficit result is “reduce”. Moreover, in data set [2], the coronary constrictive remodeling entry is reported as “promote a regression of coronary constrictive remodeling” and the coronary stenosis result was “progressively reduce coronary stenosis”.
